Values of other authors in patent US20220240500A1, “Cryopreservation compositions and methods involving nanowarming” (REGENTS OF THE UNIVERSITY OF MINNESOTA, priority 2016, published 2022).

Test system: zebrafish embryos
Settings: 2.3 M injected; previous studies

CC(O)CO (stereo not shown) [Propylene Glycol]
survival from injection into the zebrafish embryo: high survival
